# Data as given in patent publication US7387878B2, “Methods for DNA amplification and sequencing” (Yeda Research and Development Co. Ltd., priority 1998, dated 2008).
# “And” between values parts separate entries of the source, which are not always exact repeats. Equal entries are not always repeated. “Also recorded” adds a separate entry of the source. Where two headings read alike, the source gives them in different places.
# How the values were obtained:
# [1] = biological target: T1, Taq DNA polymerase (Thermus aquaticus, UniProt P19821); conditions: DMSO in 10% concentration; cited from earlier work
# T1 construct: purchased MBI Fermentas
# [2] = test system: animals; conditions: cited from earlier work
# [3] = test system: mammalian cells; conditions: cited from earlier work
# [4] = biological target: T1, Taq DNA polymerase; assay: Remaining activity of Taq polymerase after incubation at elevated temperatures; format: biochemical; conditions: for remaining Taq polymerase activity: 1M additive
# Procedure: THP(B), THP(A) or glycerol were added from 3M stock solutions (pH 8.8 at 25° C.). The reaction mixtures were overlaid with paraffin oil and incubated at 95° C. or 97° C. Aliquotes (7.5 μl) were taken for polymerase activity assay at different periods of time.
# [5] = test system: 349 b.p. fragment (66.5% GC content) from Halobacterium marismortui genomic DNA; assay: PCR with THP(B) using Taq DNA polymerase; format: biochemical
# Procedure: MgCl2 concentrations of 1.0 mM and 1.75 mM were used in the absence and presence of THP(B), respectively, added from a 3M stock solution (pH 8.8 at 25° C.). […] (primer extension).
# PCR reaction was performed by Taq DNA polymerase as described in Materials and Methods, section (vii), using as a template whole genomic DNA of Halobacterium marismortui (66.5% GC) and the 28-mer primers 1 and 2 described in section (i).
# [6] = test system: calf thymus DNA (42% GC); assay: DNA melting (absorbance at 260 nm), calf thymus DNA; conditions: 62° C. in aqueous solution
# Procedure: (§1) DNA melting studies were conducted in a buffer (1 ml) containing 5.0 mM K2HPO4 and 0.1 mM Na2EDTA at pH 7.5. […] DNA samples were adjusted to O.D260=0.2 and incubated overnight at 37° C. before use, as previously described (Rees et al., 1993). […] The increase in absorbance at 260 nm was monitored in Hewlett Packard 9450A diode array spectrophotometer attached to a temperature programmer and controller. Both the sample and the reference cells were heated together at a rate of 0.5° C./min and the net absorbance was recorded after every 0.5° C. increase. The Tms were determined graphically from the midpoints of the absorbance versus temperature profile.
# [7] = test system: poly(dA-dT); assay: DNA melting (absorbance at 260 nm), poly(dA-dT)
# Procedure: as §1
# [8] = test system: [d(GCTTAAGC)]2 (SEQ ID NO:2); assay: Thermal transition of short oligonucleotide by 1H NMR chemical shift; conditions: for Tm: DNA alone 48.0
# Procedure: (§2) ^1H NMR measurements were carried out on a Bruker AMX 400 NMR MHZ spectrometer at 400.13 MHZ (equipped with an Aspect 300 control). For the ^1H NMR measurements, 1.0 mM DNA oligonucleotides were dissolved in 0.5 ml phosphate buffer solution (pH 7.2) in D2O (20 mM, for [d(ATGCAT)]2 (SEQ ID NO:1) and 40 mM for [d([…])]2 (SEQ ID NO:2) containing 50 mM NaCl and 0.1 mM EDTA. The solutions were lyophilized and then redissolved in 0.5 ml D2O (99.96%), heated to 65 EC and gradually cooled to 5 EC, and then degassed with argon at room temperature.
# (§3) The thermal transitions of the short oligonucleotides [d(ATGCAT)]2 (SEQ ID NO:1) (FIG. 4A) and [d([…])]2 (SEQ ID NO:2) (FIG. 4B) were studied in the absence (open squares) and presence of 0.5M (open circles) and 1.0M (filled squares) THP(B). NMR chemical shift changes of the C4H5 proton of [d(ATGCAT)]2 (SEQ ID NO:1) and of the G1H8 proton of [d([…])]2 (SEQ ID NO:2) were measured as a function of increasing temperatures as described in Materials and Methods section (iii).
# [9] = test system: [d(ATGCAT)]2 (SEQ ID NO:1); assay: as above; conditions: for Tm: DNA alone 31.5
# Procedure: as §2, §3
# [10] = test system: DNAs of varying base compositions; assay: DNA melting (absorbance at 260 nm), DNAs of varying base compositions
# Procedure: as §1
# [11] = biological target: T7 DNA polymerase (Escherichia phage T7, UniProt P00581); conditions: 40% formamide; cited from earlier work
# [12] = biological target: Taq polymerase (Thermus aquaticus, UniProt P19821); conditions: 95-97° C.; cited from earlier work
# [13] = test system: DNA; conditions: for each 10% increase in glycerol concentration; cited from earlier work
# [14] = biological target: T2, Klenow DNA polymerase (Escherichia coli, UniProt P00582); assay: Klenow DNA polymerase activity assay at 37° C.; format: biochemical; conditions: for effect on Klenow polymerase activity: 1.0M additive, separate experiment, data not shown; for effect on Klenow DNA polymerase activity: 5.0M L-proline, 37° C., 6.7, 10.0 and 15.0 mM MgCl2
# T2 construct: Klenow fragment of DNA polymerase I; purchased MBI Fermentas
# Procedure: (§4) Klenow fragment (0.1 units) was added to the microtubes with reaction mixture pre-heated to 37° C., and following 7.5 minutes incubation at 37° C. (a time-point within the region of linear kinetics determined in a separate experiment, not shown), the reaction microtubes were placed on ice, and the reaction was stopped by addition of 12 μl of 50 mM EDTA and then applied on strips of chromatographic paper (Whatman No. 3). Strips were washed three times by cold TCA 10%, dried and the radioactivity was counted.
# [15] = test system: 349 b.p. fragment (66.5% GC) from Halobacterium marismortui genomic DNA; conditions: 4.0M proline
# Procedure: PCR was performed in 25 μl reaction mixture containing 250 ng of Halobacterium marismortui genomic DNA template, 0.12 nM of each 30-mer oligonucleotide primers 5 and 6 described in section (i) above, 0.3 μl of Klentaq1 and Pfu (or Vent) enzymes mixture, prepared as described (Barnes, 1994), 200 μM of each dNTP, in PCR buffer containing: 10 mM Tris-HCl (pH 8.3 at 25° C.) and 50 mM KCl. […] Reaction mixtures were preheated for 1 min at their respective denaturation temperatures, except for reactions performed at Td 95° C., that were preheated for 1 min at 94° C., and then subjected to 35 thermal cycles as follows: (I) 30 sec incubation at 72-95° C., as indicated in each experiment (denaturation step); (ii) 90 sec incubation at 37-55° C., as indicated in each experiment (primer annealing step); and (iii) 7 min incubation at 63-69° C., as indicated in each experiment (primer extension).
# Reaction mixtures were preheated for 1 min at their respective denaturation temperatures (77° C. and 75° C.), and then subjected to 35 thermal cycles as follows: (i) 30 sec incubation at 77° C. or 75° C. (denaturation step); (ii) 90 sec incubation at 44° C. (primer annealing step); and (iii) 7 min incubation at 65° C. (primer extension).
# [16] = test system: Micrococcus lysodeikticus DNA (72% GC); conditions: 6.2M proline
# Procedure: as §1
# [17] = test system: 349 b.p. fragment (66.5% GC) from Halobacterium marismortui genomic DNA; conditions: PCR with 10-15 units Klenow, denaturation 70° C., FIG. 12
# [18] = test system: 349 b.p. fragment (66.5% GC) from Halobacterium marismortui genomic DNA; conditions: 1.0M proline
# Procedure: PCR was performed in 25 μl reaction mixture containing 3 ng of Halobacterium marismortui genomic DNA template, 0.12 nM of each 28-mer oligonucleotide primers 3 and 4 described in section (i) above, 0.5 units of Taq DNA polymerase, 200 μM of each dNTP, in PCR buffer containing: 10 mM Tris-HCl (pH 8.8 at 25° C.), 50 mM KCl, 0.08% Nonidet P40. […] Reaction mixtures were preheated for 3 min at their respective denaturation temperatures, except for reactions performed at Td 95° C., that were preheated for 3 min at 94° C., and then subjected to 35 thermal cycles as follows: (I) 30 sec incubation at 91-95° C., as indicated in each experiment (denaturation step); (ii) 90 sec incubation at 55° C. (primer annealing step); and (iii) 60 sec incubation at 72° C. (primer extension).
# [19] = biological target: T2, Klenow DNA polymerase; assay: Remaining activity of Klenow DNA polymerase after incubation at 65° C.; format: biochemical; conditions: 5M proline
# Procedure: as §4
# The microtubes were vortexed and Klenow enzyme was added to the samples. The Klenow DNA polymerase activity assay was performed as described in section (iv) above at 6.7 mM concentration of MgCl2. To each aliquot (5 μl) 20 μl of stock solution containing all other components of the assay were added, making a total reaction volume of 25 μl and a 5-fold dilution of the aliquots.
# [20] = 30 min incubation at 97° C., 10% without additives
# [21] = 60 min incubation at 97° C., 5% or less without additives
# T1 sequence (P19821 whole entry): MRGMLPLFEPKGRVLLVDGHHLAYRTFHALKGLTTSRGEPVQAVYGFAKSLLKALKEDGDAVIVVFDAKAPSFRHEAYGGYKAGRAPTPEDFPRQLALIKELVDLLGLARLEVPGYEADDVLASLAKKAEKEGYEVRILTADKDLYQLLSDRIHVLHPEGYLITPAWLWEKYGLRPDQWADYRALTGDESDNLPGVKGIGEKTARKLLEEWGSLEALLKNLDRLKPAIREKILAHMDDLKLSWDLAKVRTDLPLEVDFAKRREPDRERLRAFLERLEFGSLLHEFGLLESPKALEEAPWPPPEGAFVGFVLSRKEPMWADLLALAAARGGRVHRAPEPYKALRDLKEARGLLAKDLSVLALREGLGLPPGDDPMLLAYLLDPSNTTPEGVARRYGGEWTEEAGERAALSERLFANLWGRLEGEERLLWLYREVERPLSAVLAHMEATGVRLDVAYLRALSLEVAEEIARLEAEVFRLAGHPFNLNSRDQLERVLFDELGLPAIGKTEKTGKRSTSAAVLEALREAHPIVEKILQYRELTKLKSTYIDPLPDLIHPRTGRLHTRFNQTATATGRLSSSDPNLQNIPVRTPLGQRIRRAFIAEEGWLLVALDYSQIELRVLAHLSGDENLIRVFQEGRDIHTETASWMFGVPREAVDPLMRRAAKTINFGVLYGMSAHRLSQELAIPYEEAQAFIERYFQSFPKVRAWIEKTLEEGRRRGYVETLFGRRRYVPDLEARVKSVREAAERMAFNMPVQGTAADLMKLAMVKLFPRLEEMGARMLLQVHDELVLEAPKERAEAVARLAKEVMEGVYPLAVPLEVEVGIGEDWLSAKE
# T2 sequence (P00582 324-928): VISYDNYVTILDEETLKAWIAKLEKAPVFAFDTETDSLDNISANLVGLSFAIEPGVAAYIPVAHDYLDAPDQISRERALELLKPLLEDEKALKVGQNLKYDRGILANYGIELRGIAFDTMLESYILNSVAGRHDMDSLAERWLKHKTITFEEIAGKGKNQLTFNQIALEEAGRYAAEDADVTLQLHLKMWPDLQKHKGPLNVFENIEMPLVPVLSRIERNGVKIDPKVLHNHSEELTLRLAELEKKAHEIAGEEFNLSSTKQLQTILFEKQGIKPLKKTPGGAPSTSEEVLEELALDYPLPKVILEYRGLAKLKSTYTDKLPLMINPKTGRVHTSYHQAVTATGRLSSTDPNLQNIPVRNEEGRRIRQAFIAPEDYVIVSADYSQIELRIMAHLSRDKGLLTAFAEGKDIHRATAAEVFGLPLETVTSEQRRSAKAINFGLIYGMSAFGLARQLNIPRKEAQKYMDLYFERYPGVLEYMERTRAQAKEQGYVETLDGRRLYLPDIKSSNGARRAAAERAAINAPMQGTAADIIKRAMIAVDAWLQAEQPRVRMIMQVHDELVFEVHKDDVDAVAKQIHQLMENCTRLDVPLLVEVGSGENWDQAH
# Taq polymerase, sequence (P19821 whole entry): as the sequence (P19821 whole entry) above
# T7 DNA polymerase, sequence (P0AA25 2-109): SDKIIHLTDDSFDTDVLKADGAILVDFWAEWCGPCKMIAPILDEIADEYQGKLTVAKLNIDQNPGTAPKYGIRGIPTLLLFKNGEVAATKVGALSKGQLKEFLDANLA
# T7 DNA polymerase, sequence (P00581 whole entry): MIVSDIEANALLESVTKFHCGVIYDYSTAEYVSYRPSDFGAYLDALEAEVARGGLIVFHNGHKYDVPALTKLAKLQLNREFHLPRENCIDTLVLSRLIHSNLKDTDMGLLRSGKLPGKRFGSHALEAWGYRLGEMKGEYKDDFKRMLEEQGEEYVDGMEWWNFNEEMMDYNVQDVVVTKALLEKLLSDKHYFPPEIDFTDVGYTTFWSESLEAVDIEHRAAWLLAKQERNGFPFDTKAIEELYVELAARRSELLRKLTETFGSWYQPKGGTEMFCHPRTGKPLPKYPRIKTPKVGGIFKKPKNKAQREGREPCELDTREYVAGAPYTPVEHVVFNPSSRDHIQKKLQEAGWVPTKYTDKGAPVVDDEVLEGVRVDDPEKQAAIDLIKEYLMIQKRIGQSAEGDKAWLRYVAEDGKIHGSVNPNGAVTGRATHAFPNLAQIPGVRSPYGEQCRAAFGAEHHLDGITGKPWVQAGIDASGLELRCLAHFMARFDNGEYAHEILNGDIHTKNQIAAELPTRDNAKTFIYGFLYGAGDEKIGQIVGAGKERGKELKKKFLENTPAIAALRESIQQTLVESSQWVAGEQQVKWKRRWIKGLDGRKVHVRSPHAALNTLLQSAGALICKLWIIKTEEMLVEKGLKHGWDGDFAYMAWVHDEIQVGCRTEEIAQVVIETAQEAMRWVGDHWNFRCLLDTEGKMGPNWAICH
compound,measurement,setting,value
C[S+](C)[O-] [DMSO],inhibition of Taq DNA polymerase activity,[1],53%
"CC1=NCC(O)C(C(=O)O)N1 (stereo not shown) [THP(A), 2-methyl-4-carboxy-5-hydroxy-3,4,5,6-tetrahydropyrimidine]",toxicity,[2]; animals,not toxic
same,toxicity,[3]; mammalian cells,not toxic
same,effectiveness in stabilizing Taq DNA polymerase (comparison),"[4]; 97° C., 1M additives, FIG. 5",more effective than THP(B) or glycerol
same,remaining Taq polymerase activity,[4]; [20],50% and 55%
same,remaining Taq activity relative to no additives,[4]; 60 min incubation at 97° C.,10 fold
same,remaining Taq polymerase activity,[4]; [21],45% and 55%
"CC1=NCCC(C(=O)O)N1 (stereo not shown) [THP(B), 2-methyl-4-carboxy-3,4,5,6-tetrahydropyrimidine]",PCR amplification,"[5]; 0.5M THP(B), Td 92° C.",amplified sequences were produced only in the presence of THP(B)
same,yield and specificity of DNA amplification,"[5]; 0.5M THP(B), Td 95° C. and 92° C.",improved
same,PCR amplification,"[5]; 1.0M THP(B), Td 89° C., 0.5 units Taq",markedly lower
same,PCR amplification,"[5]; 1.0M THP(B), Td 90° C., 0.5 or 0.75 units Taq",specific amplified sequence was generated only in the presence of THP(B)
same,PCR amplification,"[5]; 1.0M THP(B), Td 95° C.",improved PCR specific amplification
same,toxicity,[2]; in vivo,not toxic
same,DNA melting temperature,[6]; 3 or 4M THP(B),41 °C
same,toxicity,[3],not toxic
same,change in melting temperature of poly(dA-dT),[7]; 1-4M THP(B),did not exhibit any change; also recorded: no change
same,decrease of melting temperature,[8]; 0.5M additive,3 EC
same,Tm,[8]; 0.5 M additive,45.0 °C
same,decrease of melting temperature,[8]; 1.0M additive,6 EC
same,Tm,[8]; 1.0 M additive,42.0 °C
same,decrease of melting temperature,[9]; 0.5M additive,2 EC
same,Tm,[9]; 0.5 M additive,29.5 °C
same,decrease of melting temperature,[9]; 1.0M additive,3.5 EC
same,Tm,[9]; 1.0 M additive,28.0 °C
same,remaining Taq polymerase activity,[4]; [20],40%
same,remaining Taq polymerase activity,[4]; [21],20%
same,temperature range in which all DNAs melt,"[10]; 4M THP(B), 39 to 75° C. in its absence",40-43 °C
"C[N+](C)(C)CC(=O)O [betaine, Betaine, reference compound]",decrease of melting temperature,[8]; 1.0M additive,−2 EC
same,Tm,[9]; 1.0 M additive,29.2 °C
NC=O [formamide],T7 DNA polymerase activity,[11],completely inactive
OCC(O)CO [glycerol],thermal stability of Taq polymerase,[12],doubling
same,lowering of DNA melting temperatures,[13],2.5-3 °C
same,effect on Klenow polymerase activity,[14],stimulative
"O=C(O)[C@@H]1CCCN1 [proline, L-Proline]",PCR performance,[15]; denaturation temperature 75° C.,but not at 75 °C
same,PCR performance,[15]; denaturation temperature 77° C.,enough for successful PCR
same,range of melting higher than DNAs of GC content 42% and 26%,[16],about 5 °C
same,DNA melting temperature,[6]; 6.2M proline,27 °C
same,proline concentration sufficient to confer stability to Klenow polymerase (and conduct successful PCR),[17],3-5.5 M
same,effect on Klenow polymerase activity,[14],stimulative
same,effect on Klenow DNA polymerase activity,[14]; listed as L-proline,only slightly decreased
same,effect on Klenow DNA polymerase activity,[14]; listed as Proline,only slightly decrease
same,change in melting temperature of poly(dA-dT),[7]; 1-5M proline,did not exhibit any change
same,change in melting temperature of poly(dA-dT),[7]; 5-6.2M proline,small effect
same,melting lower than DNAs of GC content 42% and 26%,[7]; 6.2M proline,about 15 °C
same,PCR performance,[18]; denaturation temperature 91° C.,enabled successful PCR
same,PCR performance,[18]; denaturation temperature 95° C.,did not impair PCR performance
same,half life of Klenow DNA polymerase relative to no additive,[19],30-50 fold
same,temperature range in which all DNAs melt,"[10]; 6.2M proline, 38 to 78° C. in its absence",25-32 °C
same,Tm values of the tested natural DNAs,"[10]; 6.2 M proline, 57-78° C. without",28-32 °C
